# Experimental data published in patent US20070015771A1, “Lonidamine analogs” (Threshold pharmaceuticals, Inc., priority 2004, published 2007).
# What was measured:
# PWR-1E cells = test: Antiproliferation assay, PWR-1E cells (Example 48); format: cell-based; settings: read-out: IC50 PWR-1E cell
# Experimental: To determine the effect of lonidamine and analogs thereof on cell proliferation, the antiproliferative activity of these compounds was tested in a multi-well Alamar Blue based assay (at 2 h and 3 days). Cell growth in the presence and absence of the test compound (compounds 1-22) was compared, as measured by a fluorescence plate reader at excitation 550 nm and emission 590 nm (see Biosource International Inc., Tech Application Notes, Use of Alamar Blue in the measurement of Cell Viability and Toxicity, Determining IC50). H460 cells (ATCC HTB-177 ([…]), 4,000 cells/well/200 μl) and LNCap cells (ATCC CRL-1740, 6,000 cells/well/200 μl) were seeded in a 96 well plate in RPMI medium (Invitrogen Corporation, Carlsbad, Calif.). After 24 hours, these plates were divided into 3 groups—Control group, 2 h treatment group and 3 day treatment group. In the 2 h treatment group, after 2 h the cells were rinsed to remove the test compound and incubated for 3 days, followed by staining with AlamarBlue. The cells in the 3 day treatment group were incubated for 3 days, followed by staining with AlamarBlue. In the Control group, AlamarBlue was added to the plate at (i) day 0 and (ii) day 3 and measured to establish the control reading.
# The effect of lonidamine and analogs thereof on cell proliferation in PWR-1E cells (ATCC CRL-11611) was determined in an antiproliferative assay using PWR-1E cells (5000 cells/well) in Keratinocyte SFM medium (Gibco Products, Invitrogen Corporation, Carlsbad, Calif.) according to the procedure detailed in Example 47 above.
# LNCaP cells = test: Cell cycle analysis; format: cell-based, human; settings: for % G0/G / % G2/M / % S: 24 h
# Experimental: The effect of compound 1 (as described in Example 1 above) on the cell cycle was determined as follows. LNCaP cells (2×10^5 cells/ml/well) were seeded in a 24 well plate. The culture media were removed after 24 h, the cells were trypsinized and centrifuged. The cell pellets were resuspended in 100 μl PBS buffer, after which 300 μl of ice-cold ethanol (96%) added dropwise, and the cells were incubated at 4° C. for at least 24 hr. The cells were centrifuged and the supernatant was discarded. The cell cycle staining reagent (Guava Technologies, Hayward, Calif., USA, 200 μl) was added to each well. The cells were shielded from light and incubated at room temperature for 30 min. The samples were analyzed (Guava PCA-96 instrument, Cytosoft software, Guava Technologies, 25801 Industrial Boulevard, Hayward Calif. 94545-2991, USA) as tabulated below.
# mouse prostate = test: Mouse study, 5 days oral, prostate weight and histomorphology; format: in vivo; settings: C57B1/6J mice
# Experimental: The effect of Compound 1 on the mouse prostate was determined as follows. Compound 1 was orally administered daily for 5 days to male, C57B1/6J mice, (n=5, 6-8 weeks old) 1 at 2, 5, and 20 mg/kg (as a 1% carboxymethylcellulose formulation). The control mice received an equal amount of the vehicle (carboxymethylcellulose). On day 6 the mice were sacrificed and the entire prostate and the individual lobes (e.g., the dorsal lobe and the ventral lobe) were weighed to measure absolute weights. Relative weights of prostate and individual lobes were calculated by dividing the absolute weight by the total weight of the mouse. Relative weights of the entire prostate, the dorsal prostate, and the ventral prostate were calculated by dividing the absolute weight by the total weight of the mouse. Both the absolute entire prostate and relative entire prostate weights reduced in the 5 and 20 mg/kg groups compared to the control group. The histomorphology of the prostate was also analyzed and compared to that of the control or untreated prostate as illustrated in FIGS. 1-3, showing […].
# CD-1 mice = test: Tolerance study in CD-1 mice; format: in vivo, mouse
# Excerpt: The toxicological end-points in this study were standard clinical observations such as changes in movement, breathing, food consumption, mortality and decreased body weight.
# [1] = oral daily for 5 days, 5 and 20 mg/kg groups vs control
compound,measurement,setting,value
O=C(NO)c1nn(Cc2ccc(Cl)cc2Cl)c2ccccc12 [Compound 1],IC50,PWR-1E cells,4 µM
same,effect on the cell cycle,LNCaP cells; 2.5-200 μM,does not have a measurable effect
same,% G0/G,LNCaP cells; 2.5 μM,59%
same,% G2/M,LNCaP cells; 2.5 μM,27%
same,% S,LNCaP cells; 2.5 μM,11%
same,% G0/G,LNCaP cells; 7.4 μM,56%
same,% G2/M,LNCaP cells; 7.4 μM,26%
same,% S,LNCaP cells; 7.4 μM,15%
same,% G0/G,LNCaP cells; 22.2 μM,57%
same,% G2/M,LNCaP cells; 22.2 μM,25%
same,% S,LNCaP cells; 22.2 μM,11%
same,% G0/G,LNCaP cells; 66.7 μM,51%
same,% G2/M,LNCaP cells; 66.7 μM,24%
same,% S,LNCaP cells; 66.7 μM,19%
same,% G0/G,LNCaP cells; 200 μM,41%
same,% G2/M,LNCaP cells; 200 μM,17%
same,% S,LNCaP cells; 200 μM,18%
same,histomorphology of the prostate,"mouse prostate; oral daily for 5 days, 2, 5, 20 mg/kg",dose-dependent disorganization of the epithelial cells
same,absolute entire prostate weight,mouse prostate; [1],reduced
same,relative entire prostate weight,mouse prostate; [1],reduced
same,tolerated dose,"CD-1 mice; CD-1 mice, oral dosing for 5 days",500 mg/kg/day
same,therapeutic index compared to lonidamine,"CD-1 mice; mice, when used for prostate weight reduction",10 fold
